Measured values from US8247211B2, “Glycopeptide antibiotics” (American Cyanamid Company, priority 2001, dated 2012).
Converted amounts (≈) assume the structure as drawn. One block for each molecule: values may come before it.

Legend:
Assay in all cases: In vitro antibacterial evaluation: minimum inhibitory concentration (MIC), broth dilution method
Assay type in all cases: cell-based
Conditions in all cases: 18 hours at 35° C.
[1] = tested on: Enterococcus sp.
Procedure, shortened: (§1)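 NCCLS M7-A2 broth dilution; Muller-Hinton II […]; 5×10^5 CFU/mL; 64-0.06 μg/mL. MIC = lowest concentration with no growth.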

[2] = tested on: Escherichia coli
Procedure, shortened: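 First, organisms are seeded at 5×10^5 CFU/mL into Muller-Hinton II […]. Next, antibiotic is applied across 64-0.06 μg/mL by broth dilution (NCCLS M7-A2). Finally, the lowest inhibitory concentration is recorded as MIC.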

[3] = tested on: Staphylococcus sp.
Procedure, shortened: as §1

[4] = tested on: Streptococcus sp.
Procedure, shortened: as §1

[5] = Enterococcus faecalis (GC 2242)
[6] = Enterococcus faecalis (GC 2691)
[7] = Enterococcus faecalis (GC 3059)
[8] = broth dilution, inoculum 5×10^5 CFU/mL
[9] = Streptococcus agalactiae (GC 4564)
[10] = Streptococcus pneumoniae (ATCC 6301)
[11] = Streptococcus pneumoniae (GC 1894)
[12] = Streptococcus pneumoniae (GC 4565)
[13] = Streptococcus pyogenes (GC 4563)

MIC Enterococcus avium (GC 4558) [1]: 8 µg/mL (≈ 5.48 µM) | MIC Enterococcus faecalis (ATCC 29212) [1]: 16 µg/mL (≈ 11 µM) | MIC Enterococcus faecalis (GC 2242) [1, 5]: 16 µg/mL (≈ 11 µM) | MIC Enterococcus faecalis (GC 2691) [1, 6]: 32 µg/mL (≈ 21.9 µM) | MIC Enterococcus faecalis (GC 3059) [1, 7]: 32 µg/mL (≈ 21.9 µM) | MIC Enterococcus faecalis (GC 4552) [1]: 16 µg/mL (≈ 11 µM) | MIC Enterococcus faecalis (GC 4553) [1]: 8 µg/mL (≈ 5.48 µM) | MIC Enterococcus faecalis (GC 4554) [1]: 32 µg/mL (≈ 21.9 µM) | MIC Enterococcus faecalis (GC 6189) [1]: 16 µg/mL (≈ 11 µM) | MIC Enterococcus faecium (GC 2243) [1]: 16 µg/mL (≈ 11 µM) | MIC Enterococcus faecium (GC 4556) [1]: 16 µg/mL (≈ 11 µM) | MIC Enterococcus faecium (GC 4557) [1]: 4 µg/mL (≈ 2.74 µM) | MIC Enterococcus faecalis (GC 2242) [1, 8]: 16 µg/mL (≈ 11 µM) | MIC Enterococcus faecalis (GC 2691) [1, 8]: 32 µg/mL (≈ 21.9 µM) | MIC Enterococcus faecalis (GC 3059) [1, 8]: 32 µg/mL (≈ 21.9 µM) | MIC Escherichia coli (GC 4559) [2]: 64 µg/mL (≈ 43.8 µM) | MIC Escherichia coli (GC 4560) [2]: 4 µg/mL (≈ 2.74 µM) | MIC Coagulase Negative Staphylococcus (GC 4547) [3]: 4 µg/mL (≈ 2.74 µM) | MIC Coagulase Negative Staphylococcus (GC 4548) [3]: 4 µg/mL (≈ 2.74 µM) | MIC Coagulase Negative Staphylococcus (GC 4549) [3]: 4 µg/mL (≈ 2.74 µM) | MIC Coagulase Negative Staphylococcus (GC 4551) [3]: 8 µg/mL (≈ 5.48 µM) | MIC Coagulase Negative Staphylococcus (GC 6257) [3]: 2 µg/mL (≈ 1.37 µM) | MIC Staphylococcus aureus (ATCC 29213) [3]: 4 µg/mL (≈ 2.74 µM) | MIC Staphylococcus aureus (GC 1131) [3]: 8 µg/mL (≈ 5.48 µM) | MIC Staphylococcus aureus (GC 3051) [3]: 4 µg/mL (≈ 2.74 µM) | MIC Staphylococcus aureus (GC 3053) [3]: 4 µg/mL (≈ 2.74 µM) | MIC Staphylococcus aureus (GC 4541) [3]: 4 µg/mL (≈ 2.74 µM) | MIC Staphylococcus aureus (GC 4542) [3]: 4 µg/mL (≈ 2.74 µM) | MIC Staphylococcus aureus (GC 4544) [3]: 8 µg/mL (≈ 5.48 µM) | MIC Staphylococcus aureus (GC 4545) [3]: 4 µg/mL (≈ 2.74 µM) | MIC Staphylococcus aureus-SMITH (GC 4543) [3]: 4 µg/mL (≈ 2.74 µM) | MIC Streptococcus agalactiae (GC 4564) [4, 9]: 2 µg/mL (≈ 1.37 µM) | MIC Streptococcus pneumoniae (ATCC 6301) [4, 10]: 2 µg/mL (≈ 1.37 µM) | MIC Streptococcus pneumoniae (GC 1894) [4, 11]: 0.5 µg/mL (≈ 0.343 µM) | MIC Streptococcus pneumoniae (GC 4565) [4, 12]: 2 µg/mL (≈ 1.37 µM) | MIC Streptococcus pyogenes (GC 4563) [4, 13]: 4 µg/mL (≈ 2.74 µM) | MIC Streptococcus agalactiae (GC 4564) [4, 8]: 2 µg/mL (≈ 1.37 µM) | MIC Streptococcus pneumoniae (ATCC 6301) [4, 8]: 2 µg/mL (≈ 1.37 µM) | MIC Streptococcus pneumoniae (GC 1894) [4, 8]: 0.5 µg/mL (≈ 0.343 µM) | MIC Streptococcus pneumoniae (GC 4565) [4, 8]: 2 µg/mL (≈ 1.37 µM) | MIC Streptococcus pyogenes (GC 4563) [4, 8]: 4 µg/mL (≈ 2.74 µM)
Structure (SMILES): CC(c1ccccc1)C1NC(=O)CNC(=O)C(CO)NC(=O)C(CC2CNC(=N)N2C2OC(CO)C(O)C(O)C2O)NC(=O)C(CC2CNC(=N)N2)NC(=O)C(Cc2ccc(OC3OC(CO)C(OC4OC(COCc5ccc(OCc6ccccc6)cc5)C(O)C(O)C4O)C(O)C3O)cc2)NC1=O (stereo not drawn) [Example 246, Cyclo[3-(2-iminoimidazolidin-4-yl)alanyl-3-(3-hexopyranosyl-2-iminoimidazolidin-4-yl)-alanylserylglycyl-β-methylphenylalanyl-O-[4-O-[6-O-[4-(phenylmethoxy)benzyl]hexopyranosyl]hexopyranosyl]tyrosyl]]
MIC Staphylococcus haemolyticus (GC 4546) [3]: 4 µg/mL (≈ 2.74 µM)

MIC Enterococcus avium (GC 4558) [1]: 2 µg/mL (≈ 1.37 µM) | MIC Enterococcus faecalis (ATCC 29212) [1]: 4 µg/mL (≈ 2.74 µM) | MIC Enterococcus faecalis (GC 2242) [1, 5]: 4 µg/mL (≈ 2.74 µM) | MIC Enterococcus faecalis (GC 2691) [1, 6]: 8 µg/mL (≈ 5.48 µM) | MIC Enterococcus faecalis (GC 3059) [1, 7]: 4 µg/mL (≈ 2.74 µM) | MIC Enterococcus faecalis (GC 4552) [1]: 4 µg/mL (≈ 2.74 µM) | MIC Enterococcus faecalis (GC 4553) [1]: 2 µg/mL (≈ 1.37 µM) | MIC Enterococcus faecalis (GC 4554) [1]: 4 µg/mL (≈ 2.74 µM) | MIC Enterococcus faecalis (GC 6189) [1]: 4 µg/mL (≈ 2.74 µM) | MIC Enterococcus faecium (GC 2243) [1]: 4 µg/mL (≈ 2.74 µM) | MIC Enterococcus faecium (GC 4556) [1]: 4 µg/mL (≈ 2.74 µM) | MIC Enterococcus faecium (GC 4557) [1]: 2 µg/mL (≈ 1.37 µM) | MIC Enterococcus faecalis (GC 2242) [1, 8]: 4 µg/mL (≈ 2.74 µM) | MIC Enterococcus faecalis (GC 2691) [1, 8]: 8 µg/mL (≈ 5.48 µM) | MIC Enterococcus faecalis (GC 3059) [1, 8]: 4 µg/mL (≈ 2.74 µM) | MIC Escherichia coli (ATCC 25922) ([2]; Escherichia coli (ATCC 25922)): 16 µg/mL (≈ 11 µM) | MIC Escherichia coli (GC 4559) [2]: 16 µg/mL (≈ 11 µM) | MIC Escherichia coli (GC 4560) [2]: 2 µg/mL (≈ 1.37 µM) | MIC Coagulase Negative Staphylococcus (GC 4547) [3]: 1 µg/mL (≈ 0.685 µM) | MIC Coagulase Negative Staphylococcus (GC 4548) [3]: 1 µg/mL (≈ 0.685 µM) | MIC Coagulase Negative Staphylococcus (GC 4549) [3]: 1 µg/mL (≈ 0.685 µM) | MIC Coagulase Negative Staphylococcus (GC 4551) [3]: 2 µg/mL (≈ 1.37 µM) | MIC Coagulase Negative Staphylococcus (GC 6257) [3]: 2 µg/mL (≈ 1.37 µM) | MIC Staphylococcus aureus (ATCC 29213) [3]: 2 µg/mL (≈ 1.37 µM) | MIC Staphylococcus aureus (GC 1131) [3]: 4 µg/mL (≈ 2.74 µM) | MIC Staphylococcus aureus (GC 3051) [3]: 1 µg/mL (≈ 0.685 µM) | MIC Staphylococcus aureus (GC 3053) [3]: 2 µg/mL (≈ 1.37 µM) | MIC Staphylococcus aureus (GC 4541) [3]: 1 µg/mL (≈ 0.685 µM) | MIC Staphylococcus aureus (GC 4542) [3]: 1 µg/mL (≈ 0.685 µM) | MIC Staphylococcus aureus (GC 4544) [3]: 2 µg/mL (≈ 1.37 µM) | MIC Staphylococcus aureus (GC 4545) [3]: 2 µg/mL (≈ 1.37 µM) | MIC Staphylococcus aureus-SMITH (GC 4543) [3]: 1 µg/mL (≈ 0.685 µM) | MIC Streptococcus agalactiae (GC 4564) [4, 9]: 0.5 µg/mL (≈ 0.343 µM) | MIC Streptococcus pneumoniae (ATCC 6301) [4, 10]: 0.25 µg/mL (≈ 0.171 µM) | MIC Streptococcus pneumoniae (GC 1894) [4, 11]: <0.12 µg/mL | MIC Streptococcus pneumoniae (GC 4565) [4, 12]: 0.25 µg/mL (≈ 0.171 µM) | MIC Streptococcus pyogenes (GC 4563) [4, 13]: 0.5 µg/mL (≈ 0.343 µM) | MIC Streptococcus agalactiae (GC 4564) [4, 8]: 0.5 µg/mL (≈ 0.343 µM) | MIC Streptococcus pneumoniae (ATCC 6301) [4, 8]: 0.25 µg/mL (≈ 0.171 µM) | MIC Streptococcus pneumoniae (GC 1894) [4, 8]: <0.12 µg/mL | MIC Streptococcus pneumoniae (GC 4565) [4, 8]: 0.25 µg/mL (≈ 0.171 µM) | MIC Streptococcus pyogenes (GC 4563) [4, 8]: 0.5 µg/mL (≈ 0.343 µM)
Structure (SMILES): CC(c1ccccc1)C1NC(=O)CNC(=O)C(CO)NC(=O)C(CC2CNC(=N)N2C2OC(CO)C(O)C(O)C2O)NC(=O)C(CC2CNC(=N)N2)NC(=O)C(Cc2ccc(OC3OC(CO)C(OC4OC(CO)C(OCc5ccc(OCc6ccccc6)cc5)C(O)C4O)C(O)C3O)cc2)NC1=O (centres unmarked) [Example 246a]
MIC Staphylococcus haemolyticus (GC 4546) [3]: 1 µg/mL (≈ 0.685 µM)

MIC Enterococcus avium (GC 4558) [1]: 64 µg/mL (≈ 43.8 µM) | MIC Enterococcus faecium (GC 4557) [1]: 32 µg/mL (≈ 21.9 µM) | MIC Escherichia coli (GC 4560) [2]: 32 µg/mL (≈ 21.9 µM) | MIC Coagulase Negative Staphylococcus (GC 4547) [3]: 64 µg/mL (≈ 43.8 µM) | MIC Coagulase Negative Staphylococcus (GC 4548) [3]: 64 µg/mL (≈ 43.8 µM) | MIC Coagulase Negative Staphylococcus (GC 4549) [3]: 32 µg/mL (≈ 21.9 µM) | MIC Coagulase Negative Staphylococcus (GC 4551) [3]: 64 µg/mL (≈ 43.8 µM) | MIC Coagulase Negative Staphylococcus (GC 6257) [3]: 64 µg/mL (≈ 43.8 µM) | MIC Staphylococcus aureus (ATCC 29213) [3]: 64 µg/mL (≈ 43.8 µM) | MIC Staphylococcus aureus (GC 3051) [3]: 64 µg/mL (≈ 43.8 µM) | MIC Staphylococcus aureus (GC 4541) [3]: 64 µg/mL (≈ 43.8 µM) | MIC Staphylococcus aureus (GC 4542) [3]: 64 µg/mL (≈ 43.8 µM) | MIC Staphylococcus aureus (GC 4544) [3]: 64 µg/mL (≈ 43.8 µM) | MIC Staphylococcus aureus (GC 4545) [3]: 64 µg/mL (≈ 43.8 µM) | MIC Staphylococcus aureus-SMITH (GC 4543) [3]: >64 µg/mL | MIC Streptococcus agalactiae (GC 4564) [4, 9]: 64 µg/mL (≈ 43.8 µM) | MIC Streptococcus pneumoniae (ATCC 6301) [4, 10]: 32 µg/mL (≈ 21.9 µM) | MIC Streptococcus pneumoniae (GC 1894) [4, 11]: 32 µg/mL (≈ 21.9 µM) | MIC Streptococcus pneumoniae (GC 4565) [4, 12]: 64 µg/mL (≈ 43.8 µM) | MIC Streptococcus pyogenes (GC 4563) [4, 13]: 64 µg/mL (≈ 43.8 µM) | MIC Streptococcus agalactiae (GC 4564) [4, 8]: 64 µg/mL (≈ 43.8 µM) | MIC Streptococcus pneumoniae (ATCC 6301) [4, 8]: 32 µg/mL (≈ 21.9 µM) | MIC Streptococcus pneumoniae (GC 1894) [4, 8]: 32 µg/mL (≈ 21.9 µM) | MIC Streptococcus pneumoniae (GC 4565) [4, 8]: 64 µg/mL (≈ 43.8 µM) | MIC Streptococcus pyogenes (GC 4563) [4, 8]: 64 µg/mL (≈ 43.8 µM)
Structure (SMILES): CC(c1ccccc1)C1NC(=O)CNC(=O)C(CO)NC(=O)C(CC2CNC(=N)N2C2OC(CO)C(O)C(O)C2O)NC(=O)C(CC2CNC(=N)N2)NC(=O)C(Cc2ccc(OC3OC(CO)C(OC4OC(CO)C(O)C(OCc5ccc(OCc6ccccc6)cc5)C4O)C(O)C3O)cc2)NC1=O (centres unmarked) [Example 246b]
